Experiment [1] is filed under the species Rattus norvegicus. In words: Induction of pressor in vagotomized and ganglion-blocked rat assessed as initial pressor activity relative to angiotensin 2. The experiment is classed as functional.
The species named for another experiment is Felis catus. The experiment in a line: Agonist activity at angiotensin AT2 receptor in isolated cat adrenal medulla assessed as secretory activity relative to angiotensin 2. The experiment is classed as tissue-based.
Experiment [2] is described as follows: Antagonist activity at angiotensin AT2 receptor in rabbit aortic strips assessed as inhibition of angiotensin 2- myotropic mediated response. Particulars: Oryctolagus cuniculus; read-out: pA2 (converted).
Experiment [3] in a line: Antagonist activity at angiotensin AT2 receptor in isolated cat adrenal medulla. In kind it is tissue-based, Felis catus.
For experiment [4], the system named is Rattus norvegicus. The experiment in a line: Induction of blood pressure in vagotomized and ganglion-blocked rat at 250 ng/kg/min, iv measured at 3 mins. The experiment is classed as functional.
The subject of experiment [5] is Rattus norvegicus. In words: Induction of blood pressure in vagotomized and ganglion-blocked rat at 250 ng/kg/min, iv measured at 10 mins. In kind it is functional.
Experiment [6] deals with Rattus norvegicus. The experiment in a line: Induction of blood pressure in vagotomized and ganglion-blocked rat at 250 ng/kg/min, iv measured at 30 mins. The experiment is classed as functional.
For experiment [7], the system named is Rattus norvegicus. In words: Potentiation of angiotensin 2-induced of blood pressure in vagotomized and ganglion-blocked rat at 250 ng/kg/min, iv relative to before compound infusion. The experiment is classed as functional.
In experiment [8] the test system is Rattus norvegicus. The experiment in a line: Induction of blood pressure in rat at 250 ng/kg/min, iv measured at 3 mins (reference value: 0.78 +/- 0.26 mmHg). The experiment is classed as functional.
Experiment [9] has as its system Rattus norvegicus. The experiment in a line: Induction of blood pressure in rat at 250 ng/kg/min, iv measured at 30 mins (reference value: 3.66 +/- 0.74 mmHg). The experiment is classed as functional.
Experiment [10] concerns Rattus norvegicus. In words: Induction of blood pressure in acute adrenalectomized rat at 250 ng/kg/min, iv measured at 3 mins (reference value: 0.78 +/- 0.26 mmHg). In kind it is functional.
Experiment [11] deals with Rattus norvegicus. In words: Induction of blood pressure in acute adrenalectomized rat at 250 ng/kg/min, iv measured at 30 mins (reference value: 3.66 +/- 0.74 mmHg). The experiment is classed as functional.
Experiment [12] deals with Rattus norvegicus. The experiment in a line: Induction of blood pressure in acute adrenalectomized rat at 250 ng/kg/min, iv measured at 3 mins in presence of propranolol (reference value: 0.78 +/- 0.26 mmHg). The experiment is classed as functional.
Experiment [13] concerns Rattus norvegicus. The experiment in a line: Induction of blood pressure in acute adrenalectomized rat at 250 ng/kg/min, iv measured at 30 mins in presence of propranolol (reference value: 3.66 +/- 0.74 mmHg). The experiment is classed as functional.
The subject of experiment [14] is Rattus norvegicus. The experiment in a line: Potentiation of angiotensin 2-induced blood pressure in rat at 250 ng/kg/min, iv relative to before compound infusion. The experiment is classed as functional.
The subject of experiment [15] is Rattus norvegicus. In words: Potentiation of angiotensin 2-induced blood pressure in acute adrenalectomized rat at 250 ng/kg/min, iv relative to before compound infusion. In kind it is functional.
Experiment [16] has as its system Rattus norvegicus. The experiment in a line: Potentiation of angiotensin 2-induced blood pressure in acute adrenalectomized rat at 250 ng/kg/min, iv in presence of propranolol relative to before compound infusion. In kind it is functional.
The species named for experiment [17] is Rattus norvegicus. The experiment in a line: Induction of pressor in vagotomized and ganglion-blocked rat assessed as initial pressor activity up to 10 ug/ml relative to angiotensin 2. In kind it is functional.
Experiment [18] relates to Rattus norvegicus. In words: Induction of blood pressure in vagotomized and ganglion-blocked rat at 6000 ng/kg/min, iv measured at 3 mins. The experiment is classed as functional.
The subject of experiment [19] is Rattus norvegicus. In words: Induction of blood pressure in vagotomized and ganglion-blocked rat at 6000 ng/kg/min, iv measured at 10 mins. The experiment is classed as functional.
Experiment [20] deals with Rattus norvegicus. In words: Induction of blood pressure in vagotomized and ganglion-blocked rat at 6000 ng/kg/min, iv measured at 30 mins. In kind it is functional.
For experiment [21], the system named is Rattus norvegicus. In words: Potentiation of angiotensin 2-induced of blood pressure in vagotomized and ganglion-blocked rat at 6000 ng/kg/min, iv relative to before compound infusion. In kind it is functional.

As a reminder, the pA2 is the negative logarithm of the molar antagonist concentration that doubles the agonist concentration needed for the same response. Higher therefore signals higher antagonist potency.

Non-standard residues stand in square brackets, D forms with d. Residues, ends and D or L forms follow the SMILES beside them. Sar = CNCC(=O)O

As to `CC[C@H](C)[C@H](NC(=O)[C@H](Cc1ccc(O)cc1)NC(=O)[C@@H](NC(=O)[C@H](CCCNC(=N)N)NC(=O)CNC)C(C)C)C(=O)N[C@@H](Cc1cnc[nH]1)C(=O)N1CCC[C@H]1C(=O)N[C@@H](CCSC)C(=O)O` (H-[Sar]RVYIHPM-OH), the Activity in the experiment listed under Rattus norvegicus [1] is 3.74%; in the experiment filed under Felis catus it was less than 0.01%; in the experiment with Rattus norvegicus [4], 36.75 mmHg; with Rattus norvegicus [5], 36.75 mmHg; in the experiment with Rattus norvegicus [6], 32.5 mmHg. Besides, the Kb in experiment [2] was 2.34 nM. For the same molecule, the pA2 in [3] is 9.16.

With `CC[C@H](C)[C@H](NC(=O)[C@H](Cc1ccc(O)cc1)NC(=O)[C@@H](NC(=O)[C@H](CCCNC(=N)N)NC(=O)CNC)C(C)C)C(=O)N[C@@H](Cc1cnc[nH]1)C(=O)N1CCC[C@H]1C(=O)N[C@@H](CO)C(=O)O` (H-[Sar]RVYIHPS-OH), the Activity was 0.66% in the experiment filed under Rattus norvegicus [1]; 0.05% in the experiment filed under Felis catus; 9.57 mmHg in the experiment on Rattus norvegicus [4]; 9.57 mmHg with Rattus norvegicus [5]; 11.42 mmHg in the experiment with Rattus norvegicus [6]. Further, in experiment [2], the Kb is 8.32 nM. Further, the pA2 in [3] is reported as 9.33. The Ratio in the experiment with Rattus norvegicus [7] is on record as 11.15.

For `CC[C@H](C)[C@H](NC(=O)[C@@H]1CCCN1C(=O)[C@H](Cc1cnc[nH]1)NC(=O)[C@@H](NC(=O)[C@H](Cc1ccc(O)cc1)NC(=O)[C@@H](NC(=O)[C@H](CCCNC(=N)N)NC(=O)[C@H](CC(=O)O)NC)C(C)C)[C@@H](C)CC)C(=O)O`, the Activity turned out to be 0.76% in the experiment listed under Rattus norvegicus [1]; 1.01% in the experiment filed under Felis catus; 10.14 mmHg in the experiment on Rattus norvegicus [4]; 16.57 mmHg with Rattus norvegicus [5]; 16.57 mmHg in the experiment on Rattus norvegicus [6]. For the same molecule, in experiment [2], the Kb was 1.82 nM. This molecule also had a pA2 in [3] of 8.16. In addition, in the experiment with Rattus norvegicus [7], the Ratio is reported as 33.43.

For the molecule `CC[C@H](C)[C@H](NC(=O)[C@H](Cc1ccc(O)cc1)NC(=O)[C@@H](NC(=O)[C@H](CCCNC(=N)N)NC(=O)CNC)C(C)C)C(=O)N[C@@H](Cc1cnc[nH]1)C(=O)N1CCC[C@H]1C(=O)N(C)[C@H](C(=O)O)[C@@H](C)CC`, the Activity was found to be 1.06% in the experiment filed under Rattus norvegicus [1]; 0.1% in the experiment filed under Felis catus; 25.1 mmHg with Rattus norvegicus [4]; 36 mmHg with Rattus norvegicus [5]; 32 mmHg in the experiment with Rattus norvegicus [6]; 25.1 mmHg in the experiment on Rattus norvegicus [8]. Moreover, the Activity with Rattus norvegicus [9] came out at 32 mmHg; with Rattus norvegicus [10], 24.66 mmHg; with Rattus norvegicus [11] it was 30.33 mmHg; with Rattus norvegicus [12], 21 mmHg; with Rattus norvegicus [13], 17.71 mmHg. The Kb in experiment [2] is 14.1 nM. This molecule also registered a pA2 in [3] of 8. In addition, the Ratio with Rattus norvegicus [7] is 2.99; in the experiment with Rattus norvegicus [14], 2.99; in the experiment on Rattus norvegicus [15], 2.53; with Rattus norvegicus [16] it was 2.56.

As to `CC[C@H](C)[C@@H](C(=O)N[C@@H](Cc1cnc[nH]1)C(=O)N1CCC[C@H]1C(=O)N(C)[C@H](C(=O)O)[C@@H](C)CC)N(C)C(=O)[C@H](Cc1ccc(O)cc1)NC(=O)[C@@H](NC(=O)[C@H](CCCNC(=N)N)NC(=O)CNC)C(C)C`, the Activity was less than 0.01% in the experiment listed under Felis catus; 0% in the experiment filed under Rattus norvegicus [17]; 1 mmHg in the experiment with Rattus norvegicus [4]; 3.2 mmHg in the experiment with Rattus norvegicus [5]; 7 mmHg in the experiment with Rattus norvegicus [6]; 2.5 mmHg in the experiment with Rattus norvegicus [18]. Besides, the values for the Activity in the experiment with Rattus norvegicus [19] and with Rattus norvegicus [20] were 3.16 mmHg and 7.33 mmHg, respectively. Besides, the Kb in experiment [2] was 12.9 nM. The molecule also returned a pA2 in experiment [3] of 8. In addition, the Ratio with Rattus norvegicus [7] was determined as 0.62; in the experiment on Rattus norvegicus [21] it was 0.82.

With `CC[C@H](C)[C@H](NC(=O)[C@@H]1CCCN1C(=O)[C@H](Cc1cnc[nH]1)NC(=O)[C@@H](NC(=O)[C@H](Cc1ccc(O)cc1)N(C)C(=O)[C@@H](NC(=O)[C@H](CCCNC(=N)N)NC(=O)CNC)C(C)C)[C@@H](C)CC)C(=O)O`, the Activity in the experiment filed under Rattus norvegicus [1] was 0.34%; in the experiment listed under Felis catus, 0.11%; in the experiment on Rattus norvegicus [4], 8 mmHg; with Rattus norvegicus [5], 10 mmHg; in the experiment with Rattus norvegicus [6], 9.8 mmHg; in the experiment with Rattus norvegicus [18] it was 39.2 mmHg. Further, the Activity turned out to be 21.6 mmHg with Rattus norvegicus [19] and 14.4 mmHg with Rattus norvegicus [20]. Further, in experiment [2], the Kb was 36.3 nM. Also, in experiment [3], the pA2 is given as 9.16. The Ratio in the experiment with Rattus norvegicus [7] was determined as 2.14; in the experiment with Rattus norvegicus [21], 12.09.

Turning to `CC[C@H](C)[C@H](NC(=O)[C@@H]1CCCN1C(=O)[C@H](Cc1c[nH]cn1)NC(=O)[C@@H](NC(=O)[C@H](Cc1ccc(O)cc1)NC(=O)[C@@H](NC(=O)[C@H](CCCN=C(N)N)NC(=O)CNC)C(C)C)[C@@H](C)CC)C(=O)O`, the Activity in the experiment filed under Felis catus came out at 3%; in the experiment with Rattus norvegicus [8] it was 17.81 mmHg; with Rattus norvegicus [9] it was 14.81 mmHg; with Rattus norvegicus [10] it was 8.9 mmHg; with Rattus norvegicus [11], 1.8 mmHg. Further, the Kb in [2] was 0.676 nM. Also, in experiment [3], the pA2 is 9.5. Also, the Ratio with Rattus norvegicus [14] is listed as 27.79; in the experiment on Rattus norvegicus [15], 6.04.

With `CC[C@H](C)[C@H](NC(=O)[C@@H]1CCCN1C(=O)[C@H](Cc1c[nH]cn1)NC(=O)[C@H]([C@@H](C)CC)N(C)C(=O)[C@H](Cc1ccc(O)cc1)NC(=O)[C@@H](NC(=O)[C@H](CCCN=C(N)N)NC(=O)CNC)C(C)C)C(=O)O`, the Activity in the experiment filed under Rattus norvegicus [1] came out at 0.46%; in the experiment listed under Felis catus, 0.01%; with Rattus norvegicus [4], 15.66 mmHg; in the experiment with Rattus norvegicus [5], 23 mmHg; in the experiment with Rattus norvegicus [6], 22.8 mmHg. Also, the Kb in [2] is 22.9 nM. In experiment [3], this molecule registered a pA2 of 9.31. Also, the Ratio in the experiment with Rattus norvegicus [7] was 3.26.

For the molecule `CC[C@H](C)[C@H](NC(=O)[C@H](Cc1ccc(O)cc1)NC(=O)[C@@H](NC(=O)[C@H](CCCN=C(N)N)NC(=O)CNC)C(C)C)C(=O)N[C@@H](Cc1c[nH]cn1)C(=O)N1CCC[C@H]1C(=O)N[C@H](C(=O)O)[C@@H](C)O` (H-[Sar]RVYIHPT-OH), the Activity was found to be 0% in the experiment filed under Felis catus; 9.46 mmHg with Rattus norvegicus [8]; 9.2 mmHg in the experiment on Rattus norvegicus [9]; 7.57 mmHg with Rattus norvegicus [10]; 4.57 mmHg with Rattus norvegicus [11]. In addition, in [3], the pA2 is reported as 9. Besides, the Ratio was 26.9 with Rattus norvegicus [7] and 5.52 in the experiment with Rattus norvegicus [15].

The values above are taken from ChEMBL document CHEMBL3272315, “Synthesis of angiotensin II antagonists containing N- and O-methylated and other amino acid residues” (J Med Chem, 1976).
